# Measured values reported in ChEMBL document CHEMBL5725801, “Fused heterocyclic compounds as CaM kinase inhibitors” (2018).
# Test: CaMKII Cell-Based Activity: CaMKII activity in neonatal rat ventricular myocytes (NRVM) was measured by monitoring the phosphorylation level of phospholamban using high-content imaging. NRVMs were plated in a clear bottom 384-well plate in medium supplemented with 10% fetal bovine serum (FBS) and incubated at 37° C., 5% CO2 overnight. The medium was changed to a serum-free medium and compounds were dosed to the cells. The cells were incubated at 37° C., 5% CO2 for 4 hours and were then treated with 100 nM ATX-II (Alomone Labs) to activate CaMKII. 10 minutes after the addition of ATX-II, the cells were fixed with 4% formaldehyde followed by permeabilization with 0.1% triton X100. The fixed cells were stained with an anti-phospho-phospholamban primary antibody (Santa Cruz Biotechnology) and an Alexa488-labeled anti-rabbit IgG secondary antibody (Life Technologies Corporation) as well as Hoechst 33342 (Life Technologies Corporation). The cells were imaged using an ArrayScan VTI (Cellomics) and analyzed for cells containing a positive fluorescent signal at 485 nm, reported as % responder. The % responders were plotted against the compound concentration to determine the compounds EC50.
row,EC50 [nM],SMILES
1,34.7,CCN(CC)CCNC(=O)c1cc(-c2cnn3ccc(-c4cccs4)nc23)nc(N2CC[C@H]2C(=O)NC)c1
2,261,COC1CN(c2cc(C(=O)NC[C@@H]3CCCN3)cc(-c3cnn4ccc(-c5cccs5)nc34)n2)C1
3,145,COc1cc(C(=O)N2CC[C@H](N)C2)cc(-c2cnn3ccc(-c4cccs4)nc23)n1
4,32.5,CCN(CC)[C@@H](C)CNC(=O)c1cc(-c2cnn3ccc(-c4cccs4)nc23)nc(N2CC[C@H]2C(=O)N2CC(OC)C2)c1
5,35.4,CCN(CC)C(C)CNC(=O)c1ccnc(-c2cnn3ccc(-c4cccs4)nc23)c1 (stereo not drawn)
6,142,C[C@@]1(CNC(=O)c2ccnc(-c3cnn4ccc(-c5cccs5)nc34)c2)CCCN1
7,57.1,CCN(CC)[C@@H](C)CNC(=O)c1cc(O[C@H]2CCOC2)nc(-c2cnn3ccc(-c4cccs4)nc23)c1
8,45.9,CCN[C@H](CNC(=O)c1ccnc(-c2cnn3ccc(-c4ccccc4)nc23)c1)COc1ncccn1
9,54.5,CCN(CC)[C@@H](C)CNC(=O)c1cc(-c2cnn3ccc(-c4cccs4)nc23)nc(N2CCC23COC3)c1
10,115,CCN(CC)[C@@H](C)CNC(=O)c1cc(-c2cnn3ccc(-c4cccs4)nc23)nc(N2CCC(C(N)=O)CC2)c1
11,61.5,CCN(CC)[C@@H](C)CNC(=O)c1cc(-c2cnn3ccc(-c4cccs4)nc23)nc(N2CC(F)(F)C(F)(F)C2)c1
12,260,CCN(CC)[C@@H](C)CNC(=O)c1cc(-c2cnn3ccc(-c4cccs4)nc23)nc(N2CCC[C@@H]2COC)c1
13,54.3,CCN(CC)[C@@H](C)CNC(=O)c1cc(NCc2cc[nH]n2)nc(-c2cnn3ccc(-c4cccs4)nc23)c1
14,122,COC1CN(c2cc(C(=O)NC[C@H](C)N)cc(-c3cnn4ccc(-c5ccccc5)nc34)n2)C1
15,45.9,CCN(CC)[C@@H](C)CNC(=O)c1cc(-c2cnn3ccc(-c4cccs4)nc23)nc(N2CCC[C@@H]2CO)c1
16,212,CN(C)c1cc(C(=O)N2CC[C@H](N)C2)cc(-c2cnn3ccc(-c4cccs4)nc23)n1

row,EC50 [nM],SMILES
1,20.5,CCN(CC)[C@@H](C)CNC(=O)c1cc(-c2cnn3ccc(-c4cccs4)nc23)nc(N2CC(F)C2)c1
2,145,CCN[C@@H](C)CNC(=O)c1cc(-c2cnn3ccc(-c4ccccc4)nc23)nc(N2CC(OC)C2)c1
3,27.1,CCN(CC)[C@@H](C)CNC(=O)c1cc(NC[C@H](C)O)nc(-c2cnn3ccc(-c4cccs4)nc23)c1
4,2480,C[C@H](N)CNC(=O)c1cc(-c2cnn3ccc(-c4cccs4)nc23)nc(N2CC(O)C2)c1
5,10,CCN(CC)[C@@H](C)CNC(=O)c1cc(-c2cnn3ccc(-c4ccc(F)s4)nc23)nc(N2CC[C@H]2C(=O)NC)c1
6,126,O=C(NC[C@H]1CCN1)c1ccnc(-c2cnn3ccc(-c4cccs4)nc23)c1
7,6.81,O=C(c1ccnc(-c2cnn3ccc(-c4ccccc4)nc23)c1)N1CCCC[C@@H]1[C@@H]1CCCN1
8,21.6,CCN(CC)[C@@H](C)CNC(=O)c1cc(-c2cnn3ccc(-c4cccs4)nc23)nc(N2CC(CO)C2)c1
9,57.2,CCN(CC)[C@@H](C)CNC(=O)c1cc(-c2cnn3ccc(-c4cccs4)nc23)nc(N2CC(C(C)(C)O)C2)c1
10,48.4,CCN(CC)[C@@H](C)CNC(=O)c1cc(OC[C@H](C)OC)nc(-c2cnn3ccc(-c4cccs4)nc23)c1
11,9.37,CCN(CC)[C@@H](C)CNC(=O)c1cc(-c2c(C)n[nH]c2C)nc(-c2cnn3ccc(-c4cccs4)nc23)c1
12,347,O=C(NCC1CCCCCN1)c1ccnc(-c2cnn3ccc(-c4cccs4)nc23)c1 (stereo not drawn)
13,217,N[C@H]1CCCN(C(=O)c2ccnc(-c3cnn4ccc(-c5cccs5)nc34)c2)C1
14,418,CN(C)c1cc(C(=O)N2CCCC[C@H]2CN)cc(-c2cnn3ccc(-c4ccccc4)nc23)n1
15,48.8,CCC(=O)Nc1cc(C(=O)NC[C@H](C)N(CC)CC)cc(-c2cnn3ccc(-c4cccs4)nc23)n1

row,SMILES,EC50 [nM]
1,COC1CN(c2cc(C(=O)N3C4CC[C@@H]3CCNC4)cc(-c3cnn4ccc(-c5ccccc5)nc34)n2)C1,272
2,COC1CN(c2cc(C(=O)N3CC4CCC(C3)NC4)cc(-c3cnn4ccc(-c5ccccc5)nc34)n2)C1 (stereo not drawn),95.6
